Measured values reported in the supplement of paper PMC6461962.

Tested on: Rhodanobacter sp. FW104-10B01
Details: medium / electron acceptor: 10B01 R2A/aerobic
In short: (§1)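 Growth was read as OD600 at 24 h, or at 48 h for R2A strain comparisons, after washed cells at a final OD600 of 0.02 (80 µL) were added to 384-well plates holding serially diluted inorganic ion salts or equimolar nitrilotriacetic acid complexes. Aerobic plates were shaken at 700 rpm at 30 °C, but anaerobic plates were not. IC50 was calculated with the drc R package from at least two biological replicate curves, scaled between water and growth-blocking antibiotic controls and excluding wells with precipitate.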

SMILES	IC50 growth inhibition [mM]
[Cl-].[Cl-].[Sr+2] [Strontium chloride]	354
CC(=O)[O-].[Tl+] [Thallium(I) acetate]	> 5
[Cl-].[Cl-].[Zn+2] [Zinc chloride]	1.77
O.O.O.O.O=S(=O)([O-])[O-].[Be+2] [beryllium sulfate tetrahydrate]	> 500
[Cl][Bi]([Cl])[Cl] [bismuth(III) chloride]	0.00279
O.O.[Cl][Cu][Cl] [copper (II) chloride dihydrate]	> 5
O.[Au+3].[Cl-].[Cl-].[Cl-] [gold (III) chloride hydrate]	< 0.000244
[Cl][Pb][Cl] [lead (II) chloride]	> 5
[Cl][Hg][Cl] [mercury (II) chloride]	< 0.00244
[Cl][Pt]([Cl])([Cl])[Cl] [platinum (IV) chloride]	0.123
[K+].[OH-].[OH-].[OH-].[OH-].[OH-].[OH-].[Sb+3] [potassium hexahydroxoantimonate]	> 5
O.O=[Te](=O)([O-])[O-].[K+].[K+] [potassium tellurate hydrate]	> 0.5
[Cl-].[Rb+] [rubidium chloride]	354
[Cl][Ag] [silver chloride]	> 0.5
[Br-].[Na+] [sodium bromide]	> 500
[F-].[Na+] [sodium fluoride]	354
[O-][I+2]([O-])O [sodium iodate]	35.4
[I-].[Na+] [sodium iodide]	354
O=S([O-])[O-].[Na+].[Na+] [sodium sulfite]	> 500
OB1OB2OB(O)OB(O1)O2 [sodium tetraborate decahydrate]	> 5

Same assay, conditions: medium / electron acceptor: 10B01 R2A/nitrate

SMILES	IC50 growth inhibition [mM]
[Cl-].[Cl-].[Sr+2] [Strontium chloride]	370
CC(=O)[O-].[Tl+] [Thallium(I) acetate]	2.95
[Cl-].[Cl-].[Zn+2] [Zinc chloride]	4.5
O.O.O.O.O=S(=O)([O-])[O-].[Be+2] [beryllium sulfate tetrahydrate]	> 500
[Cl][Bi]([Cl])[Cl] [bismuth(III) chloride]	0.354
O.O.[Cl][Cu][Cl] [copper (II) chloride dihydrate]	> 5
O.[Au+3].[Cl-].[Cl-].[Cl-] [gold (III) chloride hydrate]	< 0.000244
[Cl][Pb][Cl] [lead (II) chloride]	> 5
[Cl][Hg][Cl] [mercury (II) chloride]	< 0.00244
[Cl][Pt]([Cl])([Cl])[Cl] [platinum (IV) chloride]	0.0935
[K+].[OH-].[OH-].[OH-].[OH-].[OH-].[OH-].[Sb+3] [potassium hexahydroxoantimonate]	> 5
O.O=[Te](=O)([O-])[O-].[K+].[K+] [potassium tellurate hydrate]	> 0.5
[Cl-].[Rb+] [rubidium chloride]	> 500
[Cl][Ag] [silver chloride]	> 0.5
[Br-].[Na+] [sodium bromide]	> 500
[F-].[Na+] [sodium fluoride]	11.6
[O-][I+2]([O-])O [sodium iodate]	4.5
[I-].[Na+] [sodium iodide]	319
O=S([O-])[O-].[Na+].[Na+] [sodium sulfite]	2
OB1OB2OB(O)OB(O1)O2 [sodium tetraborate decahydrate]	> 5

Tested on: Pseudomonas fluorescens FW300-N2E2
Details: medium / electron acceptor: N2E2 Glucose/aerobic
In short: as §1

SMILES	IC50 growth inhibition [mM]
[Cl-].[Cl-].[Sr+2] [Strontium chloride]	0.332
CC(=O)[O-].[Tl+] [Thallium(I) acetate]	< 0.00244
[Cl-].[Cl-].[Zn+2] [Zinc chloride]	< 0.00244
O.O.O.O.O=S(=O)([O-])[O-].[Be+2] [beryllium sulfate tetrahydrate]	1.55
[Cl][Bi]([Cl])[Cl] [bismuth(III) chloride]	0.0103
O.O.[Cl][Cu][Cl] [copper (II) chloride dihydrate]	0.0767
O.[Au+3].[Cl-].[Cl-].[Cl-] [gold (III) chloride hydrate]	< 0.000244
[Cl][Pb][Cl] [lead (II) chloride]	> 5
[Cl][Hg][Cl] [mercury (II) chloride]	< 0.00244
[Cl][Pt]([Cl])([Cl])[Cl] [platinum (IV) chloride]	0.0175
[K+].[OH-].[OH-].[OH-].[OH-].[OH-].[OH-].[Sb+3] [potassium hexahydroxoantimonate]	> 5
O.O=[Te](=O)([O-])[O-].[K+].[K+] [potassium tellurate hydrate]	> 0.5
[Cl-].[Rb+] [rubidium chloride]	17.4
[Cl][Ag] [silver chloride]	0.139
[Br-].[Na+] [sodium bromide]	354
[F-].[Na+] [sodium fluoride]	< 0.244
[O-][I+2]([O-])O [sodium iodate]	4.72
[I-].[Na+] [sodium iodide]	59.4
O=S([O-])[O-].[Na+].[Na+] [sodium sulfite]	0.261
OB1OB2OB(O)OB(O1)O2 [sodium tetraborate decahydrate]	> 5

Same assay, conditions: medium / electron acceptor: N2E2 Glucose/aerobic 0.25xMinerals

SMILES	IC50 growth inhibition [mM]
[Cl-].[Cl-].[Sr+2] [Strontium chloride]	< 0.244
CC(=O)[O-].[Tl+] [Thallium(I) acetate]	< 0.00244
[Cl-].[Cl-].[Zn+2] [Zinc chloride]	< 0.00244
O.O.O.O.O=S(=O)([O-])[O-].[Be+2] [beryllium sulfate tetrahydrate]	1.55
[Cl][Bi]([Cl])[Cl] [bismuth(III) chloride]	0.00276
O.O.[Cl][Cu][Cl] [copper (II) chloride dihydrate]	0.0767
O.[Au+3].[Cl-].[Cl-].[Cl-] [gold (III) chloride hydrate]	0.00197
[Cl][Pb][Cl] [lead (II) chloride]	0.0379
[Cl][Hg][Cl] [mercury (II) chloride]	< 0.00244
[Cl][Pt]([Cl])([Cl])[Cl] [platinum (IV) chloride]	0.0175
[K+].[OH-].[OH-].[OH-].[OH-].[OH-].[OH-].[Sb+3] [potassium hexahydroxoantimonate]	3.96
O.O=[Te](=O)([O-])[O-].[K+].[K+] [potassium tellurate hydrate]	0.0753
[Cl-].[Rb+] [rubidium chloride]	251
[Cl][Ag] [silver chloride]	> 0.5
[Br-].[Na+] [sodium bromide]	405
[F-].[Na+] [sodium fluoride]	< 0.244
[O-][I+2]([O-])O [sodium iodate]	2.75
[I-].[Na+] [sodium iodide]	> 500
O=S([O-])[O-].[Na+].[Na+] [sodium sulfite]	0.391
OB1OB2OB(O)OB(O1)O2 [sodium tetraborate decahydrate]	> 5

Same assay, conditions: medium / electron acceptor: N2E2 Glucose/aerobic (2)

SMILES	IC50 growth inhibition [mM]
[Cl-].[Cl-].[Sr+2] [Strontium chloride]	< 0.244
CC(=O)[O-].[Tl+] [Thallium(I) acetate]	< 0.00244
[Cl-].[Cl-].[Zn+2] [Zinc chloride]	< 0.00244
O.O.O.O.O=S(=O)([O-])[O-].[Be+2] [beryllium sulfate tetrahydrate]	1.55
[Cl][Bi]([Cl])[Cl] [bismuth(III) chloride]	0.00153
O.O.[Cl][Cu][Cl] [copper (II) chloride dihydrate]	0.0767
O.[Au+3].[Cl-].[Cl-].[Cl-] [gold (III) chloride hydrate]	< 0.000244
[Cl][Pb][Cl] [lead (II) chloride]	> 5
[Cl][Hg][Cl] [mercury (II) chloride]	< 0.00244
[Cl][Pt]([Cl])([Cl])[Cl] [platinum (IV) chloride]	0.0175
[K+].[OH-].[OH-].[OH-].[OH-].[OH-].[OH-].[Sb+3] [potassium hexahydroxoantimonate]	4.82
O.O=[Te](=O)([O-])[O-].[K+].[K+] [potassium tellurate hydrate]	0.444
[Cl-].[Rb+] [rubidium chloride]	15.7
[Cl][Ag] [silver chloride]	> 0.5
[Br-].[Na+] [sodium bromide]	379
[F-].[Na+] [sodium fluoride]	< 0.244
[O-][I+2]([O-])O [sodium iodate]	0.645
[I-].[Na+] [sodium iodide]	107
O=S([O-])[O-].[Na+].[Na+] [sodium sulfite]	0.45
OB1OB2OB(O)OB(O1)O2 [sodium tetraborate decahydrate]	> 5

Same assay, conditions: medium / electron acceptor: N2E2 KB/aerobic

SMILES	IC50 growth inhibition [mM]
[Cl-].[Cl-].[Sr+2] [Strontium chloride]	< 0.244
CC(=O)[O-].[Tl+] [Thallium(I) acetate]	< 0.00244
[Cl-].[Cl-].[Zn+2] [Zinc chloride]	2.72
O.O.O.O.O=S(=O)([O-])[O-].[Be+2] [beryllium sulfate tetrahydrate]	109
[Cl][Bi]([Cl])[Cl] [bismuth(III) chloride]	0.0578
O.O.[Cl][Cu][Cl] [copper (II) chloride dihydrate]	> 5
O.[Au+3].[Cl-].[Cl-].[Cl-] [gold (III) chloride hydrate]	< 0.000244
[Cl][Pb][Cl] [lead (II) chloride]	> 5
[Cl][Hg][Cl] [mercury (II) chloride]	< 0.00244
[Cl][Pt]([Cl])([Cl])[Cl] [platinum (IV) chloride]	0.0352
